# Measurements reported in the Kinase Knowledgebase extract (Sharma et al. 2016).
# Biological target: ROCK2 (human) (UniProt O75116)
# Assay: Assessment of ROCK2 Kinase Activity
# Sequence of ROCK2 (human) (O75116 whole entry, looked up): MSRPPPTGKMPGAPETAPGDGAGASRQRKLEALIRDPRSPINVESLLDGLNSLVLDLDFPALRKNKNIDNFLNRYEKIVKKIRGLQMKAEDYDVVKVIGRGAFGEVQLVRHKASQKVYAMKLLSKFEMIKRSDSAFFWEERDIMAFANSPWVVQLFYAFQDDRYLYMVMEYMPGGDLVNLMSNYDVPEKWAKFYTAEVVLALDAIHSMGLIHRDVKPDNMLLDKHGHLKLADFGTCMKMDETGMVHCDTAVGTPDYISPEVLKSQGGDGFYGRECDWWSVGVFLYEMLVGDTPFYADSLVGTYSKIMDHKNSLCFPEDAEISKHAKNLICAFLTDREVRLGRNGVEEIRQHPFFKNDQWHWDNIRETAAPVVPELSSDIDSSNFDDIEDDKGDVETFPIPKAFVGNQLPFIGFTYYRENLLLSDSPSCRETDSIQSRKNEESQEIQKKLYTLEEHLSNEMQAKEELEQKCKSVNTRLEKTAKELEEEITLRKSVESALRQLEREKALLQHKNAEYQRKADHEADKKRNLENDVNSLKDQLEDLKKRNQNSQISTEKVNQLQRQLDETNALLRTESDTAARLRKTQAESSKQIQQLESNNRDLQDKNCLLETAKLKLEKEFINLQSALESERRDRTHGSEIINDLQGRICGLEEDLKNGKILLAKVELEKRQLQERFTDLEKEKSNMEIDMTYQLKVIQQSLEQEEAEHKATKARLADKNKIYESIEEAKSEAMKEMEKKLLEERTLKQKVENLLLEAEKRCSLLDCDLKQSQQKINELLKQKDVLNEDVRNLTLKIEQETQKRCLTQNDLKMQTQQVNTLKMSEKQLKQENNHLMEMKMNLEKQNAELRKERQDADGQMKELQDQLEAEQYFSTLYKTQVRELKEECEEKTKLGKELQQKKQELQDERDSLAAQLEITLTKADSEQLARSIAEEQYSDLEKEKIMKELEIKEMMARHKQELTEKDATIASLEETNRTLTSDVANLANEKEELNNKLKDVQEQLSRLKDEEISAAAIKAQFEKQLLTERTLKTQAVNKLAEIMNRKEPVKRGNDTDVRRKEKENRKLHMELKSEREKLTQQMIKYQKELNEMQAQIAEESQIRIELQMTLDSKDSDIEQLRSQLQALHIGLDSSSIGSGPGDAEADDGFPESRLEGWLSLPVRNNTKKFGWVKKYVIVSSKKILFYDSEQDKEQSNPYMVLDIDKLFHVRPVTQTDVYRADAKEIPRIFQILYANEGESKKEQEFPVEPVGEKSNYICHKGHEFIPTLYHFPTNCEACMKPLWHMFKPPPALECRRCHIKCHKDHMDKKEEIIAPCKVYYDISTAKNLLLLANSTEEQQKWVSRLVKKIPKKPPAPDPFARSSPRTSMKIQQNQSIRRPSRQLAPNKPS
row,Compound,IC50
1,O=c1[nH]ccc2cc(O[C@H]3CC[C@H](N4CCOCC4)CC3)c(Cl)cc12,≤ 1000 nM
2,O=c1[nH]ccc2cc(O[C@H]3CC[C@@H](N4CCOCC4)CC3)c(Cl)cc12,≤ 1000 nM
3,CN1CCN([C@H]2CC[C@@H](Oc3cc4cc[nH]c(=O)c4cc3Cl)CC2)CC1,≤ 1000 nM
4,CN1CCN([C@H]2CC[C@H](Oc3cc4cc[nH]c(=O)c4cc3Cl)CC2)CC1,≤ 1000 nM
5,O=C(CCC1CCNCC1)N[C@H]1CC[C@@H](Oc2cc3cc[nH]c(=O)c3cc2Cl)CC1,≤ 1000 nM
6,Cc1cc2c(=O)[nH]ccc2cc1O[C@@H]1CCC[C@H](N)CC1,≤ 1000 nM
7,NC(=O)C1CCN(C2CCC(Oc3cc4cc[nH]c(=O)c4cc3Cl)CC2)CC1 (centres undefined),≤ 1000 nM
8,N[C@@H]1CC[C@H](Oc2ccc3c(=O)[nH]ccc3c2)C1,≤ 1000 nM
9,N[C@H]1C[C@H](COc2cc3cc[nH]c(=O)c3cc2Cl)C1,≤ 1000 nM
10,O=C(CC1CCNCC1)N[C@H]1CC[C@@H](Oc2cc3cc[nH]c(=O)c3cc2Cl)CC1,≤ 1000 nM

# The remaining lines, values ahead:
row,IC50,Compound
1,≤ 1000 nM,O=c1[nH]ccc2cc(O[C@H]3CC[C@@H](N4CCCC4)CC3)c(Cl)cc12
2,≤ 1000 nM,O=c1[nH]ccc2cc(OC3CCC(N4CCCCC4)CC3)c(Cl)cc12 (centres undefined)
3,≤ 1000 nM,N[C@H]1CC[C@H](Oc2cc3cc[nH]c(=O)c3cc2Cl)C1
4,≤ 1000 nM,NC1CC(Oc2cc3cc[nH]c(=O)c3cc2Cl)C1 (centres undefined)
5,≤ 1000 nM,O=C(O)CN[C@H]1CC[C@@H](Oc2cc3cc[nH]c(=O)c3cc2Cl)CC1
6,≤ 1000 nM,O=c1[nH]ccc2cc(O[C@H]3CC[C@H](N4CCCC4)CC3)c(Cl)cc12
7,≤ 1000 nM,CCC[C@]1(N)CCC[C@@H](Oc2cc3cc[nH]c(=O)c3cc2Cl)CCC1
8,≤ 1000 nM,N[C@H]1CCC[C@@H](Oc2cc3cc[nH]c(=O)c3cc2Cl)CC1
9,≤ 1000 nM,CCC[C@]1(N)CCC[C@H](Oc2cc3cc[nH]c(=O)c3cc2Cl)CCC1
